Tests used:
[1] = tested on: MV4-11; test: cells; details: Homo sapiens, MV4-11, 72 h
Description: Antiproliferative activity against human MV4-11 cells assessed as inhibition of cell growth incubated for 72 hrs by celltiter-glo luminescent cell viability assay

[2] = Half life in rat plasma at 5 mg/kg, po measured up to 24 hrs by LC-MS/MS analysis; type: ADME, organism-based
[3] = Clearance in rat plasma at 5 mg/kg, po measured up to 24 hrs by LC-MS/MS analysis; type: ADME, organism-based
[4] = Cmax in rat plasma at 5 mg/kg, po measured up to 24 hrs by LC-MS/MS analysis; type: ADME, organism-based
[5] = AUClast in rat plasma at 5 mg/kg, po measured up to 24 hrs by LC-MS/MS analysis; type: ADME, organism-based
[6] = Oral bioavailability in rat plasma at 5 mg/kg measured up to 24 hrs by LC-MS/MS analysis; type: ADME, organism-based
[7] = molecular target: hERG (KCNH2) (Homo sapiens, UniProt Q12809); test: Inhibition of human ERG expressed in CHO cells at 30 uM by manual patch clamp assay relative to control; type: toxicity, cell-based; details: CHO cells expressing human ERG
hERG (KCNH2), sequence (Q12809 whole entry): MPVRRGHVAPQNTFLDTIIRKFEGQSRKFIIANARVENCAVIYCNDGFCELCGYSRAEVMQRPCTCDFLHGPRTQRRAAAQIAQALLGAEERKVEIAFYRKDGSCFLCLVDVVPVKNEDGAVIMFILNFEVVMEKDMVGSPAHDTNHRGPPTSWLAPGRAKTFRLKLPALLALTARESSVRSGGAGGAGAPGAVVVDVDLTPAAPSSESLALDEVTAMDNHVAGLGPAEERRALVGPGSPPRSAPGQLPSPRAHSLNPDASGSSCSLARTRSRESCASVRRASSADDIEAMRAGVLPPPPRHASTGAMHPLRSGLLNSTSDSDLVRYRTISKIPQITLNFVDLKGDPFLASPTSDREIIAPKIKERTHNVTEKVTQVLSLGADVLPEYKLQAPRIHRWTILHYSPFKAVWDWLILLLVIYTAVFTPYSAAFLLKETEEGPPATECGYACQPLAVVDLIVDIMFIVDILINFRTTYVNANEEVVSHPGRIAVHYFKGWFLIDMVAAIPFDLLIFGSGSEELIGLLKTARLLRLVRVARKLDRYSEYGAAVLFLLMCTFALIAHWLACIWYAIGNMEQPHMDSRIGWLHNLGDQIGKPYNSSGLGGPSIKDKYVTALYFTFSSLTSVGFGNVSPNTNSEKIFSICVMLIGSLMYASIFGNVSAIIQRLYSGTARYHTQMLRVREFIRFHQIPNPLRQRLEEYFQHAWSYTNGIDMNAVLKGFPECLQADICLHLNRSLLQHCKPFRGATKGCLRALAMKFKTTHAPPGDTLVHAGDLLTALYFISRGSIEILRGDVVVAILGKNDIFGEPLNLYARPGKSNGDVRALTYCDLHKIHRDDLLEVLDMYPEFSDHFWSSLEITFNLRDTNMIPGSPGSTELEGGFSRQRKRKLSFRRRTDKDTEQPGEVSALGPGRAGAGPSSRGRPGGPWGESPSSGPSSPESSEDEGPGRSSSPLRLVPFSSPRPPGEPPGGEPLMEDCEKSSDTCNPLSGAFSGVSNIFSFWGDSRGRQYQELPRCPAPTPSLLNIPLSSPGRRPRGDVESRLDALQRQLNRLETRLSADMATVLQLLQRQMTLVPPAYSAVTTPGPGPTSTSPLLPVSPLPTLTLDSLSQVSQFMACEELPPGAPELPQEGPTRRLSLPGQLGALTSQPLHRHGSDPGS

[8] = tested on: BaF3; test: Antiproliferative activity against mouse BaF3 cells harbouring FLT3-ITD assessed as inhibition of cell growth incubated for 72 hrs by celltiter-glo luminescent cell viability assay; type: functional, cell-based; details: BaF3, 72 h
[9] = tested on: BaF3; test: Antiproliferative activity against mouse BaF3 cells harbouring FLT3-ITD-D835Y mutant assessed as inhibition of cell growth incubated for 72 hrs by celltiter-glo luminescent cell viability assay; type: functional, cell-based; details: BaF3, 72 h
[10] = tested on: BaF3; test: Antiproliferative activity against mouse BaF3 cells harbouring FLT3-ITD-D835V mutant assessed as inhibition of cell growth incubated for 72 hrs by celltiter-glo luminescent cell viability assay; type: functional, cell-based; details: BaF3, 72 h
[11] = tested on: BaF3; test: Antiproliferative activity against mouse BaF3 cells harbouring FLT3-ITD-D835I mutant assessed as inhibition of cell growth incubated for 72 hrs by celltiter-glo luminescent cell viability assay; type: functional, cell-based; details: BaF3, 72 h
[12] = tested on: BaF3; test: Antiproliferative activity against mouse BaF3 cells harbouring FLT3-ITD-N676D mutant assessed as inhibition of cell growth incubated for 72 hrs by celltiter-glo luminescent cell viability assay; type: functional, cell-based; details: BaF3, 72 h
[13] = tested on: BaF3; test: Antiproliferative activity against mouse BaF3 cells harbouring FLT3-ITD-Y842H mutant assessed as inhibition of cell growth incubated for 72 hrs by celltiter-glo luminescent cell viability assay; type: functional, cell-based; details: BaF3, 72 h
[14] = tested on: BaF3; test: Antiproliferative activity against mouse BaF3 cells harbouring FLT3-ITD-Y842R mutant assessed as inhibition of cell growth incubated for 72 hrs by celltiter-glo luminescent cell viability assay; type: functional, cell-based; details: BaF3, 72 h
[15] = tested on: BaF3; test: Antiproliferative activity against mouse BaF3 cells harbouring FLT3-ITD-F691L mutant assessed as inhibition of cell growth incubated for 72 hrs by celltiter-glo luminescent cell viability assay; type: functional, cell-based; details: BaF3, 72 h
[16] = tested on: BaF3; test: Antiproliferative activity against mouse BaF3 cells harbouring FLT3-ITD-F691I mutant assessed as inhibition of cell growth incubated for 72 hrs by celltiter-glo luminescent cell viability assay; type: functional, cell-based; details: BaF3, 72 h
[17] = tested on: BaF3; test: Antiproliferative activity against mouse BaF3 cells harbouring FLT3-D835Y mutant assessed as inhibition of cell growth incubated for 72 hrs by celltiter-glo luminescent cell viability assay; type: functional, cell-based; details: BaF3, 72 h
[18] = tested on: BaF3; test: Antiproliferative activity against mouse BaF3 cells harbouring FLT3-D835V mutant assessed as inhibition of cell growth incubated for 72 hrs by celltiter-glo luminescent cell viability assay; type: functional, cell-based; details: BaF3, 72 h
[19] = tested on: BaF3; test: Antiproliferative activity against wild type mouse BaF3 cells assessed as inhibition of cell growth incubated for 72 hrs by celltiter-glo luminescent cell viability assay; type: functional, cell-based; details: BaF3, 72 h
[20] = Antitumor activity against human […] cells harbouring FLT3-ITD xenografted in NOD/SCID mouse model assessed as tumor regression rate at 20 mg/kg/day, po measured for 8 days by caliper analysis relative to control; type: functional, MV4-11; details: time 8 day
[21] = tested on: BaF3; test: cells; details: Mus musculus, BaF3, 72 h
[22] = tested on: BaF3; test: cells; details: Mus musculus, BaF3, 72 h; remark: listed apart in the source
[23] = tested on: BaF3; test: cells; details: Mus musculus, BaF3, 72 h; remark: listed apart in the source
[24] = tested on: BaF3; test: cells; details: Mus musculus, BaF3, 72 h; remark: listed apart in the source
[25] = tested on: BaF3; test: cells; details: Mus musculus, BaF3, 72 h; remark: listed apart in the source
[26] = tested on: BaF3; test: cells; details: Mus musculus, BaF3, 72 h; remark: listed apart in the source
Description: Antiproliferative activity against mouse BaF3 cells harbouring FLT3-D83HY mutant assessed as inhibition of cell growth incubated for 72 hrs by celltiter-glo luminescent cell viability assay

[27] = tested on: MOLM-13; test: Antitumor activity against human MOLM-13 cells xenografted in NOD/SCID mouse model assessed as tumor growth inhibition at 50 mg/kg/day, po by caliper analysis relative to control; type: functional; details: read-out: TGI

IC50 [1] | half-life [2] | CL/F [3] | Cmax [4] | AUC(0-t) at 24 h [5] | bioavailability [6] | SMILES | other results
5.2 nM | 5.86 h | 4.83 mL/min/kg | 1370 ng/mL | 11300 ng·h/mL | 69.3% | CC(C)(C)c1cc(NC(=O)Nc2ccc(C#Cc3ccc(OCCCN4CCOCC4)cc3F)cc2)no1 | inhibition at 30 µM [7]: 36.3%
9.8 nM |  |  |  |  |  | CC(C)(C)c1cc(NC(=O)Nc2ccc(C#Cc3ccc(OCCCN4CCOCC4)c(Cl)c3)cc2)no1 | 
17.7 nM |  |  |  |  |  | CC(C)(C)c1cc(NC(=O)Nc2ccc(C#Cc3ccc(OCCCN4CCOCC4)c(C(F)(F)F)c3)cc2)no1 | 
4.6 nM |  |  |  |  |  | CC(C)(C)c1cc(NC(=O)Nc2ccc(C#Cc3ccc(OCCCN4CCOCC4)c(F)c3)cc2)no1 | 
0.8 nM | 3.55 h | 26.8 mL/min/kg | 194 ng/mL | 1270 ng·h/mL | 40.8% | COc1cc(C#Cc2ccc(NC(=O)Nc3cc(C(C)(C)C)on3)cc2)ccc1OCCCN1CCOCC1 | 
0.9 nM |  |  |  |  |  | CC(C)(C)c1cc(NC(=O)Nc2ccc(C#Cc3ccc(OCCCN4CCOCC4)c(O)c3)cc2)no1 | 
25.5 nM |  |  |  |  |  | CC(C)(C)c1cc(NC(=O)Nc2ccc(C#Cc3ccc(OCCCN4CCOCC4)cc3O)cc2)no1 | 

More lines, now with the values behind:

SMILES | IC50 [1] | half-life [2] | CL/F [3] | Cmax [4] | AUC(0-t) at 24 h [5] | bioavailability [6] | other results
CC(C)(C)c1cc(NC(=O)Nc2ccc(C#Cc3ccc(OCCCN4CCC5(COC5)C4)cc3)cc2)no1 | 13.8 nM |  |  |  |  |  | 
CC(C)(C)c1cc(NC(=O)Nc2ccc(C#Cc3cnn4c(OCCCN5CCOCC5)ccnc34)cc2)no1 | 1.9 nM |  |  |  |  |  | 
CC(C)(C)c1cc(NC(=O)Nc2ccc(C#Cc3ccc(OCCCN4CCOCC4)cc3)nc2)no1 | > 1000 nM |  |  |  |  |  | 
CN1CCN(CCOc2ccc(C#Cc3ccc(NC(=O)Nc4cc(C(C)(C)C)on4)cc3)cc2)CC1 | 1.6 nM | 2.06 h | 68.2 mL/min/kg | 133 ng/mL | 534 ng·h/mL | 48.4% | 
CN1CCN(CCCOc2ccc(C#Cc3ccc(NC(=O)Nc4cc(C(C)(C)C)on4)cc3)cc2)CC1 | 2.4 nM | 5.15 h | 44.8 mL/min/kg | 100 ng/mL | 756 ng·h/mL | 42% | 
CC(C)(C)c1cc(NC(=O)Nc2ccc(C#Cc3ccc(OCCCN4CCOCC4)cc3)cc2F)no1 | 4.8 nM |  |  |  |  |  | 
CN(C)C1CCN(CCCOc2ccc(C#Cc3ccc(NC(=O)Nc4cc(C(C)(C)C)on4)cc3)cc2)CC1 | 8 nM |  |  |  |  |  | 
CC(C)(C)c1cc(NC(=O)Nc2ccc(C#Cc3ccc(OCCN4C[C@@H]5OCCO[C@@H]5C4)cc3)cc2)no1 | 1.1 nM | 3.9 h | 7.78 mL/min/kg | 862 ng/mL | 6770 ng·h/mL | 63.6% | 
CN(C)C1CCN(CCOc2ccc(C#Cc3ccc(NC(=O)Nc4cc(C(C)(C)C)on4)cc3)cc2)CC1 | 34.4 nM |  |  |  |  |  | 
CC(C)(C)c1cc(NC(=O)Nc2ccc(-c3cn4c(n3)sc3cc(OCCN5CCOCC5)ccc34)cc2)no1 [QUIZARTINIB] | 0.9 nM | 5.22 h | 7.33 mL/min/kg | 741 ng/mL | 6320 ng·h/mL | 57.6% | IC50 [8]: 0.8 nM; IC50 [9]: 36 nM; IC50 [10]: 112 nM; IC50 [11]: 280 nM; IC50 [12]: 5.5 nM; IC50 [13]: 28.8 nM; IC50 [14]: 20.8 nM; IC50 [15]: 102 nM; IC50 [16]: 136 nM; IC50 [17]: 3.6 nM; IC50 [18]: 28.7 nM; IC50 [19]: > 1000 nM; Activity [20]: 88.6%; IC50 [21]: 3.1 nM; IC50 [22]: 4.1 nM; IC50 [23]: 73.1 nM; IC50 [24]: 1.6 nM; IC50 [25]: 23.2 nM; IC50 [26]: 7.1 nM
Nc1ccn([C@@H]2O[C@H](CO)[C@@H](O)[C@@H]2O)c(=O)n1 [CYTARABINE] |  |  |  |  |  |  | inhibition in vivo at 50 mg/kg/day [27]: 36%
COc1cc(C#Cc2ccc(OCCCN3CCOCC3)cc2)ccc1NC(=O)Nc1cc(C(C)(C)C)on1 | 551 nM |  |  |  |  |  | 
CC(C)(C)c1cc(NC(=O)Nc2ccc(C#Cc3ccc(OCCCN4CCOCC4)cc3Cl)cc2)no1 | 426 nM |  |  |  |  |  | 
CC(C)(C)c1cc(NC(=O)Nc2ccc(C#Cc3ccc(OCCCN4CCOCC4)cc3)cc2C#N)no1 | > 1000 nM |  |  |  |  |  | 
CC(C)(C)c1cc(NC(=O)Nc2ccc(C#Cc3ccc(OCCCN4C[C@@H]5OCCO[C@@H]5C4)cc3)cc2)no1 | 3.1 nM |  |  |  |  |  | 
CC(C)(C)c1cc(NC(=O)Nc2ccc(C#Cc3ccc(OCCN4CCOCC4)cc3)cc2)no1 | 1.4 nM | 4.84 h | 22.8 mL/min/kg | 522 ng/mL | 1790 ng·h/mL | 49.2% | 

From ChEMBL document CHEMBL6134864, “Discovery of FLT3-ITD Inhibitor Clifutinib: A Novel Biphenylacetylene Urea Derivative in Clinical Trials for the Treatment of Relapsed/Refractory FLT3-ITD+ Acute Myeloid Leukemia” (J Med Chem, 2025)
